Tests used:
Ephx2 = Ephx2 gene expression by qPCR after CL316,243 treatment; format: in vivo; conditions: mice, daily 1 mg/kg intraperitoneally for 10 days
Protocol: (§1) Total RNA was extracted from tissue with Trizol and purified using a spin column kit (Zymo Research). RNA (500 ng-1 μg) was reverse transcribed with a high-capacity complementary DNA (cDNA) reverse transcription kit (Applied Biosystems). Real-time PCR was performed in mouse tissues starting with 10 ng of cDNA and forward and reverse oligonucleotide primers (300 nM each) in a final volume of 10 μl with SYBR green PCR Master Mix (Roche). Fluorescence was determined and analyzed in an ABI Prism 7900 sequence detection system (Applied Biosystems). Acidic ribosomal phosphoprotein P0 (ARBP) expression was used to normalize gene expression.

Ephx1 = Ephx1 gene expression by qPCR after CL316,243 treatment; format: in vivo; conditions: mice, daily 1 mg/kg intraperitoneally for 10 days
Protocol: as §1

mature brown adipocytes = assay: In vitro fatty acid uptake (FFA-SS-Luc) in brown adipocytes constitutively expressing luciferase; format: cell-based, mice; conditions: data not shown
Protocol: Stromal vascular cells were isolated from interscapular brown adipose tissue dissected from TgLuc mice (Stock no. 008450) obtained from The Jackson Laboratory. Cells were immortalized and differentiated into adipocytes in vitro according to the WT-1 protocol (Tseng, Y. H. et al., Mol. Cell Biol. 24, 1918-1929 (2004)). After 1 hour of serum starvation, mature adipocytes were treated with 1 μM 12,13-diHOME or methyl acetate vehicle in 0.1% w/v BSA in PBS for 15 minutes. After this treatment, cells were incubated with 10 μm FFA-SS-Luc (Intrace Medical) and imaged using the IVIS Spectrum CT using sequential 30 s exposures for 1 hour. Data was analyzed using Living Image Software and movies were assembled from individual images using ImageJ. All cultures were confirmed to be Mycoplasma free.

[1] = Acute BAT activation, serum 12,13-diHOME by LC-MS/MS; format: in vivo; conditions: mice treated for 30 minutes
Protocol: All lipid standards were purchased from Cayman Chemical Company, Avanti Polar Lipids, or Santa Cruz Biotechnology, Inc. C18SPE cartridges were purchased from Biotage. All solvents are of HPLC or LC-MS/MS grade and were acquired from Sigma-Aldrich, Fisher Scientific, or VWR International. Tissue samples were homogenized in 0.1×PBS in Omni homogenizing tubes with ceramic beads at 4° C. Aliquots of 100 μL serum or 1 mg protein of homogenized tissue (measured by BCA) were taken, depending on the experiment. A mixture of deuterium-labeled internal standards was added to each aliquot, followed by 3× volume of sample of cold methanol (MeOH). Samples were vortexed for 5 min and stored at -20° C. overnight. Cold samples were centrifuged at 14,000 g for 10 min, and the supernatant was then transferred to a new tube and 3 mL of acidified H2O (pH 3.5) was added to each sample prior to C18 SPE and performed as previously described (Powell, W. S., Methods Mol Biol. 120, 11-24 (1999)). The methyl formate fractions were collected, dried under nitrogen, and reconstituted in 50 μL MeOH:H2O (1:1, by vol). […] The identity of a component was confirmed using PeakView® software (SCIEX), and quantification was performed using MultiQuantTM software (SCIEX). The quantification of 12,13-diHOME was performed against a standard calibration curve built with 5 points ranging from 0.01 pg/μL to 100 pg/μL. […]

| Structure (SMILES) | Ephx2 expression in BAT (Ephx2) | Ephx1 expression in sWAT (Ephx1) | effect of NE treatment added to 12,13-diHOME on FFA-SS-Luc uptake in vitro (mature brown adipocytes) | 12,13-diHOME production (serum concentration) [1] |
| --- | --- | --- | --- | --- |
| C[C@H](Cc1ccc2c(c1)OC(C(=O)[O-])(C(=O)[O-])O2)NC[C@H](O)c1cccc(Cl)c1.[Na+].[Na+] [CL316,243] | increased | increased | – | – |
| NC[C@H](O)c1ccc(O)c(O)c1 [NE, Norepinephrine, reference compound] | – | – | no additive effect | induced |
